The target of assay [1] is T1, Neutrophil elastase (Homo sapiens) (UniProt P08246).
T1 sequence (whole entry): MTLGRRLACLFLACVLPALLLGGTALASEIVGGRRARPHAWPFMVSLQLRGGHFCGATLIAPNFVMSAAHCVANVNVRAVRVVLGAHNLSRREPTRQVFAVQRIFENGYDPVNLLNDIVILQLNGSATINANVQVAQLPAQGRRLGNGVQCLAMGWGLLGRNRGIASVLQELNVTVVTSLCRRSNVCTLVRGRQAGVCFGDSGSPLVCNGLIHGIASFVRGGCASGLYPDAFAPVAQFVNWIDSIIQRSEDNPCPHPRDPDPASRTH
In words: Compound was evaluated for inhibitory activity against human leukocyte elastase.

Assay [2] has as its target T2, Cathepsin G (Homo sapiens) (UniProt P08311).
T2 sequence (whole entry): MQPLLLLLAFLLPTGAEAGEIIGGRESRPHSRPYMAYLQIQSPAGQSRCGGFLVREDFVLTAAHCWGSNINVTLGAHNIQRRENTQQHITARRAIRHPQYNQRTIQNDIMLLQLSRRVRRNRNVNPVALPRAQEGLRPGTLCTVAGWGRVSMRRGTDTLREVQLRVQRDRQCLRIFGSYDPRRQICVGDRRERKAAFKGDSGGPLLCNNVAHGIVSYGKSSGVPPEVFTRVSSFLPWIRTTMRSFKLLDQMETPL
In words: Compound was evaluated for inhibitory activity towards Cathepsin G.

Assay [3] deals with T3, Myeloblastin (Homo sapiens) (UniProt P24158).
T3 sequence (whole entry): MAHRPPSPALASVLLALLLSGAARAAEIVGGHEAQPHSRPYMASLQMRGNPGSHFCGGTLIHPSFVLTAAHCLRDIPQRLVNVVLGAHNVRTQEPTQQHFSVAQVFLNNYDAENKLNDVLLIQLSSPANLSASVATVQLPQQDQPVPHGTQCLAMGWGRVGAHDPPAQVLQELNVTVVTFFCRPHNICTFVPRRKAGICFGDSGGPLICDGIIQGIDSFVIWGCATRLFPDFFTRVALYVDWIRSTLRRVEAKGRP
In words: Compound was evaluated for inhibitory activity against Proteinase 3.

As for `CCCCOP(=O)(OCCCC)OCN1C(=O)C(CC(C)C)N(CC2C=CC=C2)S1(=O)=O` (centres undefined), in assay [1], the K inact/Ki is 2.5e+06 M⁻¹ s⁻¹. `CCCCOP(=O)(OCCCC)OCN1C(=O)C(CC(C)C)CS1(=O)=O` (centres undefined) had a K inact/Ki in assay [1] of 82000 M⁻¹ s⁻¹.

On to `CC(C)CC1C(=O)N(COP(=O)(OCc2ccccc2)OCc2ccccc2)S(=O)(=O)N1Cc1ccccc1` (centres undefined), for which the values for the K inact/Ki in assay [2], in assay [1] and in assay [3] were 120 M⁻¹ s⁻¹, 6e+06 M⁻¹ s⁻¹ and 89100 M⁻¹ s⁻¹, respectively. In the case of `CCCCOP(=O)(OCCCC)OCN1C(=O)C(CC(C)C)N(C)S1(=O)=O` (centres undefined), in assay [1], the K inact/Ki is 2.7e+06 M⁻¹ s⁻¹.

`CC(C)CC1C(=O)N(COP(=O)(Oc2ccccc2)Oc2ccccc2)S(=O)(=O)N1CC1C=CC=C1` (centres undefined) had a K inact/Ki in assay [1] of 4.2e+06 M⁻¹ s⁻¹.

For `COP(=O)(OC)OCN1C(=O)C(CC(C)C)N(CC2C=CC=C2)S1(=O)=O` (centres undefined), in assay [1], the K inact/Ki is 430000 M⁻¹ s⁻¹. The same measure, in the same setting: then `CC(C)CC1CS(=O)(=O)N(COP(=O)(OCc2ccccc2)OCc2ccccc2)C1=O` (centres undefined), with 95000 M⁻¹ s⁻¹.

The values above are taken from ChEMBL document CHEMBL1130769, “Use of the 1,2,5-thiadiazolidin-3-one 1,1 dioxide and isothiazolidin-3-one 1,1 dioxide scaffolds in the design of potent inhibitors of serine proteinases” (Bioorg Med Chem Lett, 1998).
